In the supplement of paper PMC12463676, “Small-molecule dissolution of stress granules by redox modulation benefits ALS models” (Nature Chemical Biology, 2025) one finds thermal stability z-score data, which are given here for 28 targets.

Compound in one experiment: O=[As]([O-])(O)O.[K+] [potassium arsenate]
Nature of the experiment: thermal stability z-score vs DMSO; higher = more thermally stabilized by treatment. Particulars: HeLa; arsenate concentration 1 mM. The procedure: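 Cellular thermal proteome profiling in HeLa cells treated with 1 mM arsenate for 1 h (DMSO pretreatment), heated to ten temperatures (37-66.3 °C). Soluble protein was quantified by TMT mass spectrometry relative to DMSO controls; the thermal stability score was transformed to a z-score; mean of n = 3 experiments.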

Compound in a further experiment: NC(=O)CCCCC1CCSS1 [lipoamide]
The description is as above. Particulars: HeLa, lipoamide concentration 100 µM. The protocol:
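Cellular thermal proteome profiling in HeLa cells. Cells were treated with 100 µM lipoamide for 1 h, with or without 1 mM arsenate for a further 1 h, then heated to ten temperatures (37-66.3 °C), and soluble protein was quantified by TMT mass spectrometry relative to 0.1% DMSO controls. The thermal stability score (sum of log2 fold changes minus the abundance score) was transformed to a z-score; mean of n = 3 experiments.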

[1] abbreviates: arsenate co-treatment: 1 mM arsenate 1 h.
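Note: each temperature applied for 3 min, abundance score taken as mean log2 fold change at the two lowest temperatures, z-score obtained by mean subtraction and division by SD.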

Chain of UniProt P60983 (P60983 whole entry): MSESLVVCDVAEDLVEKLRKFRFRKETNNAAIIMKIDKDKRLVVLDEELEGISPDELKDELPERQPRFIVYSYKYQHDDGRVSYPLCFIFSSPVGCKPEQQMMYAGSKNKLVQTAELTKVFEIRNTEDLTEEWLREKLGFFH
Chain of UniProt Q9NZD2 (Q9NZD2 whole entry): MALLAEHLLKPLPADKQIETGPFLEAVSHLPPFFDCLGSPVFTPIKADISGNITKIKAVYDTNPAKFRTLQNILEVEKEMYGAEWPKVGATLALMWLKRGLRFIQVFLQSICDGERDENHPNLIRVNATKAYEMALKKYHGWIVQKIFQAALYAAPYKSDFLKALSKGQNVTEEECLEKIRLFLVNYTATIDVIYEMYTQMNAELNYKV
Chain of UniProt Q92990 (Q92990 whole entry): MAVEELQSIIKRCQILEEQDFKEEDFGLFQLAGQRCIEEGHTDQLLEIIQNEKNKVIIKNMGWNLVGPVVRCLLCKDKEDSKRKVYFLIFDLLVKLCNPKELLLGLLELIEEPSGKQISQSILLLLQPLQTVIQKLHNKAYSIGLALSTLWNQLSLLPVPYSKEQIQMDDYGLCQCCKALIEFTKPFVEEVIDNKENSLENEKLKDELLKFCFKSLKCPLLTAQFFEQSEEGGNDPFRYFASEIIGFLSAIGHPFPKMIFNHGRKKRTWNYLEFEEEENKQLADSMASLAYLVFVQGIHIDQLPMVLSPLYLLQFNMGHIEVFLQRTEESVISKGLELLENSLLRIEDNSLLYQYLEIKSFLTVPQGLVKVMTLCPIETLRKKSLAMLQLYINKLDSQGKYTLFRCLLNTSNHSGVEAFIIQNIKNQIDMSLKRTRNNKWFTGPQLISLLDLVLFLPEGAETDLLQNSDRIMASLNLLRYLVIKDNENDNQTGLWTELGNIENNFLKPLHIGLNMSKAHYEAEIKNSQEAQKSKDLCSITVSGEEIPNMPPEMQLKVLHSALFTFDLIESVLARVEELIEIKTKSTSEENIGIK
Chain of UniProt O94925 (O94925 whole entry): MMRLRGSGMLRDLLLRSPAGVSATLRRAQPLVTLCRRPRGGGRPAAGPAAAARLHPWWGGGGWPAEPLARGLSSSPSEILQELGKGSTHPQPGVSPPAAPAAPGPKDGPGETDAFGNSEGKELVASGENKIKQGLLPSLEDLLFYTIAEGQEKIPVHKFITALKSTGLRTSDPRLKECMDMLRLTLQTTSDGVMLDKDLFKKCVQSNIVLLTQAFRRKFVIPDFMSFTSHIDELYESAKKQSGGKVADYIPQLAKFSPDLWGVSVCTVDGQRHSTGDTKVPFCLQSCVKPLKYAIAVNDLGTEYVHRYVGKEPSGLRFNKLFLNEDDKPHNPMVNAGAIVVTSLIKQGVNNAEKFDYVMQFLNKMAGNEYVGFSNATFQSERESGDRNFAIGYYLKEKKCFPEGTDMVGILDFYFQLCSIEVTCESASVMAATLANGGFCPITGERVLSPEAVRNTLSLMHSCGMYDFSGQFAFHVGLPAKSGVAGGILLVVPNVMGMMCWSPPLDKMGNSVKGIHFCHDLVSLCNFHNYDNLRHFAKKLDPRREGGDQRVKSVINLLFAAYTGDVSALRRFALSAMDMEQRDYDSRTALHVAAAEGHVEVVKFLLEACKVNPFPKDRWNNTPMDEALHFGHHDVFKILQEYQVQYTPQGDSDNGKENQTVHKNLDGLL
Chain of UniProt Q9UKD1 (Q9UKD1 whole entry): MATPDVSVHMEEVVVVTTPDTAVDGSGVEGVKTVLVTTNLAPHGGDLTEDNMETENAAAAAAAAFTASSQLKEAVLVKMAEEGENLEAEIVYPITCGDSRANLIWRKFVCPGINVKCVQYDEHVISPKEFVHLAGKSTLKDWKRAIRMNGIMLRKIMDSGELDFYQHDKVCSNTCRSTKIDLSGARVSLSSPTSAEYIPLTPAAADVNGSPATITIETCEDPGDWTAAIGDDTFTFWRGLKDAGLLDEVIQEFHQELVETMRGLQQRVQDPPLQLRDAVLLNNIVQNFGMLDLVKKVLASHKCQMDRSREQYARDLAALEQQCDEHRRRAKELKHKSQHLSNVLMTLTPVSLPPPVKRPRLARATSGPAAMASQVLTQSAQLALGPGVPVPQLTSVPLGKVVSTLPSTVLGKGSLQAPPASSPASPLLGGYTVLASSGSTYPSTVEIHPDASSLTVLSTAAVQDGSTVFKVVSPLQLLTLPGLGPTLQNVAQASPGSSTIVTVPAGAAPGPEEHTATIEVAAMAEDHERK
Chain of UniProt Q9Y692 (Q9Y692 whole entry): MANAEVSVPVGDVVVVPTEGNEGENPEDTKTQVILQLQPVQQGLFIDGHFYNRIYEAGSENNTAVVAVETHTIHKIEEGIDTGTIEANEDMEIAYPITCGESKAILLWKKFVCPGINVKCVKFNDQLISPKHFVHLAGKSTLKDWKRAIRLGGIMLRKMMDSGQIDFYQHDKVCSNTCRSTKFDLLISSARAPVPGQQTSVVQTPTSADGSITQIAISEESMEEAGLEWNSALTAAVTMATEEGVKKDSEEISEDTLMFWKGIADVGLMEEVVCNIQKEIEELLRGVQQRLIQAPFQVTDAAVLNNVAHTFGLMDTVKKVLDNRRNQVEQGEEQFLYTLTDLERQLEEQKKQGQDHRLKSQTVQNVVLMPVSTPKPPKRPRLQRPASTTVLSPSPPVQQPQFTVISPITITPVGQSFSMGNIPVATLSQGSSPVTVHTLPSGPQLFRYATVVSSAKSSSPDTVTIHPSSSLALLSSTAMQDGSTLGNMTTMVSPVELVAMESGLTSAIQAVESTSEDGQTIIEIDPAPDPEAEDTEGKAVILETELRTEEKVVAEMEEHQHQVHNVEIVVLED
Chain of UniProt O75496 (O75496 whole entry): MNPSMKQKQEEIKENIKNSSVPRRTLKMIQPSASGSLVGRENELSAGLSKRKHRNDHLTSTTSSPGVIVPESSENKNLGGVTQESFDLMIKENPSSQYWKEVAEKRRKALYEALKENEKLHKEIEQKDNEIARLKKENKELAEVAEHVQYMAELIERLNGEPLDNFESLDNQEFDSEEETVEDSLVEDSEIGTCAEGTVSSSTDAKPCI
Chain of UniProt Q49A26 (Q49A26 whole entry): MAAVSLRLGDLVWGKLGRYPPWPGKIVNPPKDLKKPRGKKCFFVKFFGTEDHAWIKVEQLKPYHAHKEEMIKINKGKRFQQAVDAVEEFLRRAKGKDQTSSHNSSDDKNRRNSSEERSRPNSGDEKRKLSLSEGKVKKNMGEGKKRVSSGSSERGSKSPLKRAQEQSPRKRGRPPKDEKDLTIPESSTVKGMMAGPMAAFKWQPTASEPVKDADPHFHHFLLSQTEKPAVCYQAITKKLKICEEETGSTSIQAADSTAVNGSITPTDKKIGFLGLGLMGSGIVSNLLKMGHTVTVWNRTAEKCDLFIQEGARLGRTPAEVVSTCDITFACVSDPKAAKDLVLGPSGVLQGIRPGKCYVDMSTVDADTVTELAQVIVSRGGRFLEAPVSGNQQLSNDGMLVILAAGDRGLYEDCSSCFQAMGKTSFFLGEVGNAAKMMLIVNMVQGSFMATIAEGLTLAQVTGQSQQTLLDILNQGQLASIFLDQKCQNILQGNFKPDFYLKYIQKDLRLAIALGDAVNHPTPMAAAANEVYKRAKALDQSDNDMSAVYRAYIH
Chain of UniProt Q9H1C3 (Q9H1C3 whole entry): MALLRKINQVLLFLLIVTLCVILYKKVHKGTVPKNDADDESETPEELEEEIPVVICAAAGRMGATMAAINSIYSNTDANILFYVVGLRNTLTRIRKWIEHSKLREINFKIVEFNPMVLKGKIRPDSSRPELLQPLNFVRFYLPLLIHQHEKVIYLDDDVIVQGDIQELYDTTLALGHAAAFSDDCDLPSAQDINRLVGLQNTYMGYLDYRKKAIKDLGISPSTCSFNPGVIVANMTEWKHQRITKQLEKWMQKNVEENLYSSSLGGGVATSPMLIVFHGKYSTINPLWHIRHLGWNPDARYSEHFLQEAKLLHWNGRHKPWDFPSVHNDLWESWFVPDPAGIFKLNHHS
Chain of UniProt O76003 (O76003 whole entry): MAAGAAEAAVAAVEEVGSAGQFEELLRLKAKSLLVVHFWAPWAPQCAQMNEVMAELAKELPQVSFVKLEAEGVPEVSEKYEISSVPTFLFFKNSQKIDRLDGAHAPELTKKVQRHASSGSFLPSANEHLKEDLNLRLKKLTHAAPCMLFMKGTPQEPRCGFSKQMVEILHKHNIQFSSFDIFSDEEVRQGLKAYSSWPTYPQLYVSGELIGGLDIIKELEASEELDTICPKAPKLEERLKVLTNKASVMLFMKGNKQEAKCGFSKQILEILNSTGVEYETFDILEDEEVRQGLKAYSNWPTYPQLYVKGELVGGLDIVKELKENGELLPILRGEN
Chain of UniProt Q9NS18 (Q9NS18 whole entry): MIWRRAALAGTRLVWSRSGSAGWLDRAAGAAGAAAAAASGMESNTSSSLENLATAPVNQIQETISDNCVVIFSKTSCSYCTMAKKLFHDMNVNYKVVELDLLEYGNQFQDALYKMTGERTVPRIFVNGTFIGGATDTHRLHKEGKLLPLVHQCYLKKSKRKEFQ
Chain of UniProt Q9HC38 (Q9HC38 whole entry): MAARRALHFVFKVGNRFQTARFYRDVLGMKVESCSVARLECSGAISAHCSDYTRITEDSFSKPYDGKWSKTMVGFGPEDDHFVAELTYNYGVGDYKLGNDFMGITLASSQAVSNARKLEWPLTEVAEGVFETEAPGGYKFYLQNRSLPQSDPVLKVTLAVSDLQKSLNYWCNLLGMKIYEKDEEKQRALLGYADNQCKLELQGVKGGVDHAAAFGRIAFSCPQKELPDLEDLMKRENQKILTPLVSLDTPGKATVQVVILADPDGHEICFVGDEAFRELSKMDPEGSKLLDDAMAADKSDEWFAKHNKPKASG
Chain of UniProt Q86SX6 (Q86SX6 whole entry): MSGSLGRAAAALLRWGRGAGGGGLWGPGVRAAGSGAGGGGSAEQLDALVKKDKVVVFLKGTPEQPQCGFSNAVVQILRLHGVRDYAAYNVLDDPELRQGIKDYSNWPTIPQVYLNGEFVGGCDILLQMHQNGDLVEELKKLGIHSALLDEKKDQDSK

For GKAP1 (UniProt Q5VSY0), the results for the thermal stability z-score with potassium arsenate, in the experiment with lipoamide (setting [1]) and with lipoamide (arsenate co-treatment: none) were -0.0462, 0.161 and 0.36, respectively.
In the case of GLA (UniProt P06280), the thermal stability z-score was 0.421 with potassium arsenate, -1.1 with lipoamide (setting [1]) and -0.822 in the experiment with lipoamide (arsenate co-treatment: none).
The matching figures for GLB1 (UniProt P16278): -0.438, -0.564 and -0.0527.
Take GLCCI1 (UniProt Q86VQ1): the thermal stability z-score was -0.627 with potassium arsenate, -0.207 with lipoamide (setting [1]) and -0.418 in the experiment with lipoamide (arsenate co-treatment: none).
For GLCE (UniProt O94923), in that order: 0.231, 0.386 and 0.177.
For the target GLG1 (UniProt Q92896), the thermal stability z-score with potassium arsenate was -0.0446; with lipoamide (setting [1]) it was -1.88; in the experiment with lipoamide (arsenate co-treatment: none) it was -1.9.
For GLMN (UniProt Q92990), in that order: -0.181, -0.559 and -0.296.
The matching figures for GLMP (UniProt Q8WWB7): 3.11, 2.79 and 3.71.
For GLO1 (UniProt Q04760), in that order: 1.62, 1.12 and 0.739.
For GLOD4 (UniProt Q9HC38), the thermal stability z-score turned out to be 0.311 with potassium arsenate, 2.19 in the experiment with lipoamide (setting [1]) and 2.33 in the experiment with lipoamide (arsenate co-treatment: none).
For GLRX2 (UniProt Q9NS18), in that order: 3.8, 1.4 and 1.7.
GLRX3 (UniProt O76003): the thermal stability z-score came to 0.88 with potassium arsenate, 0.153 in the experiment with lipoamide (setting [1]) and 0.465 with lipoamide (arsenate co-treatment: none).
Turning to GLRX5 (UniProt Q86SX6), the thermal stability z-score was -0.462 with potassium arsenate, 1.13 with lipoamide (setting [1]) and -0.225 with lipoamide (arsenate co-treatment: none).
Regarding GLS (UniProt O94925), the thermal stability z-score with potassium arsenate is 0.351; with lipoamide (setting [1]), -0.371; with lipoamide (arsenate co-treatment: none) it was -0.00934.
For GLT8D1 (UniProt Q68CQ7), in that order: 0.145, -0.426 and -0.593.
For GLT8D2 (UniProt Q9H1C3), in that order: -0.0179, -1.22 and -0.83.
Consider GLTP (UniProt Q9NZD2), for which the thermal stability z-score with potassium arsenate amounted to 0.72; in the experiment with lipoamide (setting [1]), 0.912; with lipoamide (arsenate co-treatment: none), 0.581.
The matching figures for GLTSCR2 (UniProt Q9NZM5): -2.53, 0.409 and -0.522.
For GLUD1 (UniProt P00367), in that order: -0.578, -1.37 and -0.412.
Regarding GLUL (UniProt P15104), the thermal stability z-score with potassium arsenate is -1.16; in the experiment with lipoamide (setting [1]) it was 0.732; with lipoamide (arsenate co-treatment: none), 0.282.
Take GLYR1 (UniProt Q49A26): the thermal stability z-score was -0.145 in the experiment with potassium arsenate, 0.0933 with lipoamide (setting [1]) and -0.0315 in the experiment with lipoamide (arsenate co-treatment: none).
The matching figures for GMDS (UniProt O60547): -0.189, 0.538 and 0.00997.
For GMEB1 (UniProt Q9Y692), in that order: 0.19, -0.239 and -0.0658.
For GMEB2 (UniProt Q9UKD1), in that order: 0.453, 0.0462 and -0.00217.
For the target GMFB (UniProt P60983), the values for the thermal stability z-score with potassium arsenate, with lipoamide (setting [1]) and with lipoamide (arsenate co-treatment: none) were -0.675, 0.0996 and 0.368, respectively.
Take GMIP (UniProt Q9P107): the thermal stability z-score is -0.0798 with potassium arsenate, -0.232 in the experiment with lipoamide (setting [1]) and -0.0407 with lipoamide (arsenate co-treatment: none).
For GMNN (UniProt O75496), in that order: 0.576, 0.365 and 0.809.
The matching figures for GMPPA (UniProt Q96IJ6): -0.0973, -0.54 and -1.04.
